Measured values from US9169254B2, “Spiroimidazolone derivative” (Chugai Seiyaku Kabushiki Kaisha, priority 2009, dated 2015).

Each compound was assayed against T1, human PTH1 receptor (Homo sapiens, UniProt Q03431) (assay: In vitro cAMP signal activity in HKRK-B7 cells (LLC-PK1 cells overexpressing the human PTH1 receptor)). Conditions: HKRK-B7 cells; compound at 1×10^−3 M; cAMP produced as percentage of that produced by hPTH(1-34) at 100 nM.
T1 sequence (Q03431 27-593): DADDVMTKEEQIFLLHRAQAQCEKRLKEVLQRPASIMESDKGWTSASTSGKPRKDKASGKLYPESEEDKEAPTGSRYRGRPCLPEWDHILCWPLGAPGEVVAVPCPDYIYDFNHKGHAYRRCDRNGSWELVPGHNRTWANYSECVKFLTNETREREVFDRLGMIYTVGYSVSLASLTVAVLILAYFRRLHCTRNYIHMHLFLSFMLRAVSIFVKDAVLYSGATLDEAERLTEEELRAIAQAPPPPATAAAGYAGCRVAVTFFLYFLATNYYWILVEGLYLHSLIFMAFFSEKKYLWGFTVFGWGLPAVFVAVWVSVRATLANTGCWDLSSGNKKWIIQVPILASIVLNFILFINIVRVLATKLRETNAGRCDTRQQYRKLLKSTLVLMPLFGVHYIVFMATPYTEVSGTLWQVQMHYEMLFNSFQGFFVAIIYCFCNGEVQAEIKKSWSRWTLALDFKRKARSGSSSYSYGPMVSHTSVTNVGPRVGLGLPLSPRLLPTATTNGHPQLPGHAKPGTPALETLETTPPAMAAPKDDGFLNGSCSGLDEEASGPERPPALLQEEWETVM
Assay type: cell-based

cAMP production activity (%)	Structure (SMILES)
83	CC(=O)Nc1ccc(CCS(=O)(=O)N2CCC3(CC2)N=C(C2CCC(CCCCl)CC2)NC3=O)c(C)c1 (centres unmarked) [Compound 1065, N-[4-(2-{2-[4-(3-chloro-propyl)-cyclohexyl]-4-oxo-1,3,8-triaza-spiro[4.5]dec-1-ene-8-sulfonyl}-ethyl)-3-methyl-phenyl]-acetamide]
110	Cc1cc(C(=O)N2CCC(C)(O)CC2)cc(C)c1/C=C/S(=O)(=O)N1CCC2(CC1)N=C(c1ccc(F)c(Cl)c1)NC2=O [Compound 1186, 2-(3-chloro-4-fluoro-phenyl)-8-{(E)-2-[4-(4-hydroxy-4-methyl-piperidine-1-carbonyl)-2,6-dimethyl-phenyl]-ethenesulfonyl}-1,3,8-triaza-spiro[4.5]dec-1-en-4-one]
5.8	Cc1cc(N(C)C(N)=O)cc(C)c1/C=C/S(=O)(=O)N1CCC2(CC1)N=C(CCCCCCCS(C)(=O)=O)NC2=O [Compound 1319, 1-(4-{(E)-2-[2-(7-methanesulfonyl-heptyl)-4-oxo-1,3,8-triaza-spiro[4.5]dec-1-ene-8-sulfonyl]-vinyl}-3,5-dimethyl-phenyl)-1-methyl-urea]
83	CCCCCCCCCCCC1=NC2(CCN([S@TB17](=O)(=O)CCc3c(C)cc(N(C)C(N)=O)cc3C)CC2)C(=O)N1 [Compound 1141, 1-{3,5-dimethyl-4-[2-(4-oxo-2-undecyl-1,3,8-triaza-spiro[4.5]dec-1-ene-8-sulfonyl)-ethyl]-phenyl}-1-methyl-urea]
88	Cc1cc(N(C)C(N)=O)cc(C)c1/C=C/[S@TB3](=O)(=O)N1CCC2(CC1)N=C(c1ccc(CCCCCC(F)(F)F)cc1)NC2=O [Compound 1117, 1-[3,5-dimethyl-4-((E)-2-{4-oxo-2-[4-(6,6,6-trifluoro-hexyl)-phenyl]-1,3,8-triaza-spiro[4.5]dec-1-ene-8-sulfonyl}-vinyl)-phenyl]-1-methyl-urea]
70	Cc1cc(CN2C(=O)NC(C)(C)C2=O)cc(C)c1CCS(=O)(=O)N1CCC2(CC1)N=C(C1CCC(CCC(F)(F)F)CC1)NC2=O (centres unmarked) [Compound 775, 3-[3,5-dimethyl-4-(2-{4-oxo-2-[4-(3,3,3-trifluoro-propyl)-cyclohexyl]-1,3,8-triaza-spiro[4.5]dec-1-ene-8-sulfonyl}-ethyl)-benzyl]-5,5-dimethyl-imidazolidine-2,4-dione]
18	Cc1cc2ccc1CCS(=O)(=O)N1CCC3(CC1)N=C(NC3=O)c1cc(cc(C(F)(F)F)c1)OCC[C@H](O)[C@H](O)COCCN(C)C2=O [Compound 1439]
29	Cc1cc(N(C)C(N)=O)cc(C)c1/C=C/[S@TB4](=O)(=O)N1CCC2(CC1)N=C(CCCCCCCCCCCCCC(=O)O)NC2=O [Compound 1109, 14-(8-{(E)-2-[2,6-dimethyl-4-(1-methyl-ureido)-phenyl]-ethenesulfonyl}-4-oxo-1,3,8-triaza-spiro[4.5]dec-1-en-2-yl)-tetradecanoic acid]
66	CC(C)(C)CNC(=O)Cc1ccc(/C=C/S(=O)(=O)N2CCC3(CC2)N=C(C2CCCCC2)NC3=O)cc1 [Compound 570, 2-{4-[(E)-2-(2-cyclohexyl-4-oxo-1,3,8-triaza-spiro[4.5]dec-1-ene-8-sulfonyl)-vinyl]-phenyl}-N-(2,2-dimethyl-propyl)-acetamide]
107	Cc1cc(N(C)C(N)=O)cc(C)c1CCS(=O)(=O)N1CCC2(CC1)N=C(c1ccc(Cl)c(C(F)(F)F)c1)NC2=O [Compound 1150, 1-(4-{2-[2-(4-Chloro-3-trifluoromethyl-phenyl)-4-oxo-1,3,8-triaza-spiro[4.5]dec-1-ene-8-sulfonyl]-ethyl}-3,5-dimethyl-phenyl)-1-methyl-urea]

The remaining lines, values behind:

Structure (SMILES)	cAMP production activity (%)
Cc1cc(C(=O)N(C)C)ccc1CCS(=O)(=O)N1CCC2(CC1)N=C(COc1ccc(Cl)cc1)NC2=O [Compound 124, 4-{2-[2-(4-chloro-phenoxymethyl)-4-oxo-1,3,8-triaza-spiro[4.5]dec-1-ene-8-sulfonyl]-ethyl}-3,N,N-trimethyl-benzamide]	64
O=C1NC(c2ccncc2)=NC12CCN(S(=O)(=O)c1cccc(Cl)c1)CC2 [Compound 2, 8-(3-chloro-benzenesulfonyl)-2-pyridin-4-yl-1,3,8-triaza-spiro[4.5]dec-1-en-4-one]	1.0
Cc1nc(C)c(C2=NC3(CCN(S(=O)(=O)CCc4ccc(C(=O)N(C)C)cc4C)CC3)C(=O)N2)s1 [Compound 102, 4-{2-[2-(2,4-dimethyl-thiazol-5-yl)-4-oxo-1,3,8-triaza-spiro[4.5]dec-1-ene-8-sulfonyl]-ethyl}-3,N,N-trimethyl-benzamide]	23
Cc1cc(C(=O)N(C)C)ccc1CCS(=O)(=O)N1CCC2(CC1)N=C(C1CCOCC1)NC2=O [Compound 123, 3,N,N-trimethyl-4-{2-[4-oxo-2-(tetrahydro-pyran-4-yl)-1,3,8-triaza-spiro[4.5]dec-1-ene-8-sulfonyl]-ethyl}-benzamide]	23
CC(=O)Nc1cc(C)c(/C=C/S(=O)(=O)N2CCC3(CC2)N=C(c2cccc(OC(F)(F)F)c2)NC3=O)c(C)c1 [Compound 238, N-(3,5-dimethyl-4-{(E)-2-[4-oxo-2-(3-trifluoromethoxy-phenyl)-1,3,8-triaza-spiro[4.5]dec-1-ene-8-sulfonyl]-vinyl}-phenyl)-acetamide]	90
Cc1ccccc1CCS(=O)(=O)N1CCC2(CC1)N=C(C1CCCCC1)NC2=O [Compound 277, 2-cyclohexyl-8-(2-o-tolyl-ethanesulfonyl)-1,3,8-triaza-spiro[4.5]dec-1-en-4-one]	38
CC(C)COC(=O)NCc1ccc(/C=C/S(=O)(=O)N2CCC3(CC2)N=C(C2CCCCC2)NC3=O)cc1 [Compound 486, {4-[(E)-2-(2-cyclohexyl-4-oxo-1,3,8-triaza-spiro[4.5]dec-1-ene-8-sulfonyl)-vinyl]-benzyl}-carbamic acid isobutyl ester]	59
Cc1cc(OCCC(O)CO)ccc1/C=C/S(=O)(=O)N1CCC2(CC1)N=C(c1cccc(C(F)(F)F)c1)NC2=O (centres unmarked) [Compound 210, 8-{(E)-2-[4-(3,4-Dihydroxy-butoxy)-2-methyl-phenyl]-ethenesulfonyl}-2-(3-trifluoromethyl-phenyl)-1,3,8-triaza-spiro[4.5]dec-1-en-4-one]	79
Cc1cc(N2C[C@H](O)CC2=O)ccc1CCS(=O)(=O)N1CCC2(CC1)N=C(c1cccc(C(F)(F)F)c1)NC2=O [Compound 297, 8-{2-[4-((R)-4-hydroxy-2-oxo-pyrrolidin-1-yl)-2-methyl-phenyl]-ethanesulfonyl}-2-(3-trifluoromethyl-phenyl)-1,3,8-triaza-spiro[4.5]dec-1-en-4-one]	91
CC(=O)N(CCO)c1ccc(-c2ccc(S(=O)(=O)N3CCC4(CC3)N=C(c3ccc(F)c(C(F)(F)F)c3)NC4=O)s2)c(C)c1 [Compound 342, N-(4-{5-[2-(4-Fluoro-3-trifluoromethyl-phenyl)-4-oxo-1,3,8-triaza-spiro[4.5]dec-1-ene-8-sulfonyl]-thiophen-2-yl}-3-methyl-phenyl)-N-(2-hydroxy-ethyl)-acetamide]	93
